Laboratory results published in the supplement of paper PMC10307832.

Assays:
Test in all cases: relative viability (nuclei count vs DMSO), 5 days (fraction); higher = more cells survive
[1] = compound: CN(c1ncccc1CNc1nc(Nc2ccc3c(c2)CC(=O)N3)ncc1C(F)(F)F)S(C)(=O)=O + CC(=O)Nc1cccc(-n2c(=O)n(C3CC3)c(=O)c3c(Nc4ccc(I)cc4F)n(C)c(=O)c(C)c32)c1 [Trametinib] (partner 0.02 µM)
Outline: (§1)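 For relative viability, nuclei counts in treated wells were divided by those in vehicle wells. Lung cancer cell lines had been pin-tool dosed in 1536-well plates the day after seeding and cultured for 5 days, then fixed and stained in one step (final 0.05% Triton X-100, 1% formaldehyde, 1 ug/ml Hoechst) and imaged at 4×. Doses were one drug alone or a fixed anchor-drug dose plus five library-drug doses (not always all listed) in √10 steps, and values are duplicate-plate medians.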

[2] = compound: CN(c1ncccc1CNc1nc(Nc2ccc3c(c2)CC(=O)N3)ncc1C(F)(F)F)S(C)(=O)=O + COc1cccc2cc(-c3nc([C@H]4CC[C@H](C(=O)O)CC4)n4ncnc(N)c34)[nH]c12 [OSI-027] (partner 0.5 µM)
Outline: as §1

[3] = compound: CN(c1ncccc1CNc1nc(Nc2ccc3c(c2)CC(=O)N3)ncc1C(F)(F)F)S(C)(=O)=O + CS(=O)(=O)CCNCc1ccc(-c2ccc3ncnc(Nc4ccc(OCc5cccc(F)c5)c(Cl)c4)c3c2)o1 [Lapatinib] (partner 2 µM)
Outline: as §1

[4] = compound: CN(c1ncccc1CNc1nc(Nc2ccc3c(c2)CC(=O)N3)ncc1C(F)(F)F)S(C)(=O)=O + C[C@]1(O)C[C@@H](c2nc(-c3ccc4ccc(-c5ccccc5)nc4c3)c3c(N)nccn32)C1 [Linsitinib] (partner 1 µM)
Outline: as §1

| Cell Line | relative viability ([1]; first compound 0.01 µM) | relative viability ([1]; first compound 0.03162 µM) | relative viability ([1]; first compound 0.1 µM) | relative viability ([1]; first compound 0.3162 µM) | relative viability ([1]; first compound 1 µM) | relative viability ([2]; first compound 0.01 µM) | relative viability ([2]; first compound 0.03162 µM) | relative viability ([2]; first compound 0.1 µM) | relative viability ([2]; first compound 0.3162 µM) | relative viability ([2]; first compound 1 µM) | relative viability ([3]; first compound 0.01 µM) | relative viability ([3]; first compound 0.03162 µM) | relative viability ([3]; first compound 0.1 µM) | relative viability ([3]; first compound 0.3162 µM) | relative viability ([3]; first compound 1 µM) | relative viability ([4]; first compound 0.01 µM) | relative viability ([4]; first compound 0.03162 µM) | relative viability ([4]; first compound 0.1 µM) | relative viability ([4]; first compound 0.3162 µM) | relative viability ([4]; first compound 1 µM) |
| --- | --- | --- | --- | --- | --- | --- | --- | --- | --- | --- | --- | --- | --- | --- | --- | --- | --- | --- | --- | --- |
| NCI-H661 | 0.549 | 0.729 | 0.577 | 0.615 | 0.608 | 0.69 | 0.668 | 0.641 | 0.774 | 0.784 | 0.481 | 0.496 | 0.652 | 0.534 | 0.637 | 0.657 | 0.722 | 0.563 | 0.679 | 0.637 |
| NCI-H727 | 0.386 | 0.364 | 0.404 | 0.424 | 0.333 | 0.782 | 0.75 | 0.649 | 0.59 | 0.537 | 0.813 | 1.09 | 0.549 | 0.85 | 0.676 | 0.317 | 0.305 | 0.352 | 0.273 | 0.21 |
| NCI-H838 | 0.534 | 0.695 | 0.501 | 0.421 | 0.329 | 0.492 | 0.413 | 0.396 | 0.394 | 0.413 | 0.958 | 1.23 | 0.981 | 0.753 | 0.638 | 0.981 | 1.07 | 1.02 | 0.83 | 0.745 |
| NCI-H1355 | 0.361 | 0.41 | 0.439 | 0.384 | 0.357 | 0.481 | 0.428 | 0.377 | 0.412 | 0.396 | 1.03 | 1.04 | 0.985 | 0.919 | 0.873 | 0.776 | 0.943 | 0.846 | 0.78 | 0.679 |
| NCI-H1395 | 0.979 | 1.07 | 1.06 | 1.14 | 1.02 | 0.657 | 0.606 | 0.671 | 0.738 | 0.721 | 0.934 | 0.974 | 0.998 | 1.23 | 1.19 | 0.939 | 1.12 | 0.981 | 1.1 | 1.2 |
| NCI-H1437 | 0.529 | 0.575 | 0.415 | 0.356 | 0.395 | 0.96 | 0.929 | 0.917 | 0.876 | 0.773 | 0.876 | 0.944 | 0.813 | 0.722 | 0.725 | 0.988 | 1.08 | 1.08 | 0.978 | 0.951 |
| NCI-H1651 | 0.89 | 0.837 | 0.816 | 0.826 | 0.818 | 0.802 | 0.794 | 0.738 | 0.796 | 0.739 | 0.82 | 1.02 | 0.9 | 0.731 | 0.784 | 0.996 | 0.999 | 1.25 | 0.994 | 0.993 |
| NCI-H1666 | 0.902 | 0.853 | 0.762 | 0.838 | 0.658 | 0.779 | 0.841 | 0.792 | 0.695 | 0.556 | 0.678 | 0.624 | 0.611 | 0.546 | 0.493 | 0.814 | 0.816 | 0.943 | 0.72 | 0.612 |
